Test results as given in US20240148757A1, “USE OF DIHYDROOROTATE DEHYDROGENASE (DHODH) INHIBITORS TO TARGET FERROPTOSIS IN CANCER THERAPY” (BOARD OF REGENTS, THE UNIVERSITY OF TEXAS SYSTEM, priority 2021, published 2024).

Legend:
DHODH KO HT-1080 cells = test: Cell viability / cell death (ferroptosis) in DHODH KO HT-1080 cells; type: cell-based, human; conditions: DHODH KO; pretreatment 10 μM, 24 hours
Method: Knockout of DHODH, ACSL4 and COQ2 in human cell lines was performed using single guide RNAs (sgRNAs) and doxycycline (DOX)-inducible CRISPR-Cas9 expression system as described in our recent publication (Lee, H., et al., Nature cell biology 22, 225-234 (2020)). sgRNAs were cloned into the lentiviral lentiGuide vector. LentiGuide clones were transfected into HEK293T cells with psPAX2 packaging plasmid and pMD2.G expressing plasmid. Cells were infected with lentivirus with 0.8 μg/ml polybrene, selected with puromycin (1 μg/ml, InvivoGen), blasticidin (2 μg/ml, InvivoGen) or hygromycin B (2 μg/ml, InvivoGen) for 3 days and then single cells were sorted into 96-well plates. Single cells were maintained in DMEM with 10% (v/v) FBS and 1% (v/v) penicillin/streptomycin at 37° C. in an incubator with 20% O2 and 5% CO2 for 3-4 weeks and each colony was verified by western blot to confirm the target gene deletion. To generate cell lines with DOX-inducible CRISPR-Cas9-mediated gene deletion, cells were infected with lentivirus, selected with puromycin (1 μg/ml, InvivoGen), blasticidin (2 μg/ml, InvivoGen) or hygromycin B (2 μg/ml, InvivoGen) for 2 days and then single cells were sorted into 96-well plates. Once cell lines were established, 1 μg/ml of DOX (Sigma-Aldrich) was added to the media to induce target gene deletion for 48 hours after selection; then cells were cultured in DOX-free media for subsequent analyses.
Viable cells were measured using Cell Counting Kit-8 (CCK-8, Dojindo) as previously described (Koppula, P., Zhang, Y., Shi, J., Li, W. & Gan, B, J Biol Chem 292, 14240-14249 (2017); Liu, X. & Gan, B, Cell Cycle 15, 3471-3481 (2016)). Briefly, cells were seeded onto 96-well plates at a density of 2×10^4 per well. The next day, cells were treated with GPX4 or DHODH inhibitors for 4 hours. Subsequently, cells exposed to 10 μl CCK-8 reagent (100 μl medium per well) for 1 hour at 37° C., 5% CO2 in an incubator. The absorbance at a wavelength of 450 nm was determined using a FLUOstar Omega microplate reader (BMG Labtech).
Cell death was measured by propidium iodide (Roche) staining using a flow cytometer, as previously described (Dai, F., et al., Proc Natl Acad Sci USA 114, 3192-3197 (2017); Zhang, Y., et al., Cancer Res 80, 2243-2256 (2020)). For propidium iodide-staining, cells were seeded at a density of 50% confluence into 12-well plates. The next day, cells were treated with different reagents. To measure cell death, the cells were collected (including floating dead cells), stained with 5 μg/ml propidium iodide and the percentage of the propidium iodide-positive dead cell population was analyzed using the flow cytometer BD Accuri C6 (BD Biosciences) and an FL2 detector. A minimum of 10,000 single cells were analyzed per well and all experiments were carried out at least in triplicate.

[1] = test system: GPX4^low NCI-H226 xenografts; test: NCI-H226 xenograft model; type: in vivo, athymic nude mice; conditions: liproxstatin-1 10 mg/kg intraperitoneally daily
Method: All the xenograft experiments were performed in accordance with a protocol approved by the Institutional Animal Care and Use Committee and Institutional Review Board at The University of Texas MD Anderson Cancer Center. The study is compliant with all relevant ethical regulations regarding animal research. Female 4- to 6-week-old athymic nude mice (Foxn1^nu/Foxn1^nu) were purchased from the Experimental Radiation Oncology Breeding Core Facility at MD Anderson Cancer Center and housed in the Animal Care Facility at the Department of Veterinary Medicine and Surgery at MD Anderson. Cancer cell lines were suspended and counted in cold phosphate-buffered saline (PBS), and 5×10^6 HT-1080 or 1×10^7 NCI-H226 cells were injected into mice subcutaneously. When the tumor reached 50-100 mm^3, the mice were assigned randomly into different treatment groups. Brequinar or sulfasalazine was dissolved in dimethyl sulfoxide (DMSO) and diluted in PBS. Brequinar was intraperitoneally injected into mice at a dose of 30 mg/kg every three days. Sulfasalazine was intraperitoneally injected daily at a dose of 100 mg/kg. Liproxstatin-1 diluted in PBS was intraperitoneally injected daily at a dose of 10 mg/kg. […] The tumor volume was measured every 3 days until the endpoint and calculated according to the equation volume=length×width^2×½.

[2] = test system: GPX4 knockdown HT-1080 cells with DHODH deletion; test: Lipid peroxidation and ferroptosis in DHODH KO, GPX4 knockdown HT-1080 cells; type: cell-based, human
Method: Knockout of DHODH, ACSL4 and COQ2 in human cell lines was performed using single guide RNAs (sgRNAs) and doxycycline (DOX)-inducible CRISPR-Cas9 expression system as described in our recent publication (Lee, H., et al., Nature cell biology 22, 225-234 (2020)). sgRNAs were cloned into the lentiviral lentiGuide vector. LentiGuide clones were transfected into HEK293T cells with psPAX2 packaging plasmid and pMD2.G expressing plasmid. Cells were infected with lentivirus with 0.8 μg/ml polybrene, selected with puromycin (1 μg/ml, InvivoGen), blasticidin (2 μg/ml, InvivoGen) or hygromycin B (2 μg/ml, InvivoGen) for 3 days and then single cells were sorted into 96-well plates. […]
Cells were seeded on 12-well plates and incubated overnight. […] Lipid peroxidation was assessed using the flow cytometer BD Accuri C6 with a 488 nm laser on an FL1 detector. A minimum of 10,000 single cells were analyzed per well.
Cell death was measured by propidium iodide (Roche) staining using a flow cytometer, as previously described (Dai, F., et al., Proc Natl Acad Sci USA 114, 3192-3197 (2017); Zhang, Y., et al., Cancer Res 80, 2243-2256 (2020)). […] A minimum of 10,000 single cells were analyzed per well and all experiments were carried out at least in triplicate.

Clc1cccc(CN=C2Nc3ccccc3NC23CCNCC3)c1 [liproxstatin-1]
protection against GPX4 inhibition (RSL3 or ML162)-induced ferroptosis (DHODH KO HT-1080 cells): rescued
restoration of brequinar-suppressed tumor growth [1]: could be restored
rescue of lipid peroxidation and ferroptosis [2]: could be rescued
